Assay results from patent US20130130306A1, “ZN (II) BASED COLORIMETRIC SENSOR AND PROCESS FOR THE PREPARATION THEREOF” (COUNCIL OF SCIENTIFIC & INDUSTRIAL RESEARCH, priority 2010, published 2013).
Where “and” joins values, the source holds several entries; their conditions need not be identical. Identical values can stand only once.

Experiments:
Format in all cases: binding
[1] = UV-vis spectral response and spectrophotometric titration with CTP
Protocol: (§1) In order to examine the binding behaviour of the Zn-complex (L.Zn) (Scheme 1, Formula 1A) to various important anions (like ATP, CTP, ADP, AMP, PPi, H2PO4^−, SO4^2−, CH3CO2^−, I^−, Br^−, Cl^− and F^−) the following experiment was conducted. A solution (˜21 mM) for of sodium salts of ATP, CTP, ADP, AMP, PPi, H2PO4^−, SO4^−, CH3CO2^−, I^−, Br^−, Cl^−, and F^− were prepared using respective salt in 10 mM HEPES buffer solutions (pH 7.2) and was stored for use. Further, a solution (44.35 μM) of the compound L.Zn (Scheme 1, Formula 1A) was prepared using doubly-distilled and deionized water and stored. These stored solutions were used on the day of preparation of the solution for experiment. […]
(§2) A solution of L.Zn (Scheme 1, Formula 1A) (8.87 μM) in aqueous medium was treated with excess amount of ˜500 μM of different phosphate anions like H2PO4^−, PPi, AMP, ADP, ATP and CTP. […] Thus L.Zn (Scheme 1, Formula 1A) can bind ATP selectively among various phosphate anions and the color change associated with the binding of ATP can be detected through naked eye (FIG. 2).
A 1.0 mL of stored solution L.Zn (Scheme 1, Formula 1A) ([L.Zn]=8.95 μM) was put in a test-tube, such that, the final concentration of the L.Zn solution was 1.79 μM to this varying amount of CTP (0.1-4 mL of the stored CTP solution (12.71 mM) was added. Resulting solution was then diluted by addition of a 10 mM HEPES buffer solution (N-(2-hydroxyethyl)-piperazine-N′-2-ethanesulfonic acid) (pH 7.2) maintaining total volume of the resultant aliquot of 5 mL, which was used for spectrophotometric measurements by putting a quartz spectrophotometric cell (3.5 mL capacity). The total spectral change was measured using a spectrophotometer (Shimadzu UV-3101 PC) after appropriate base line correction. […]

[2] = UV-vis spectral response and spectrophotometric titration with ADP
Protocol: as §1
as §2, with “2). […]” for “2).”

[3] = UV-vis spectral response and spectrophotometric titration with ATP; settings: for binding constant for the formation of the complex L.Zn-ATP: spectrophotometric titration, pH 7.2, 10 mM HEPES, 25° C.
Protocol: In order to examine the binding behaviour of the Zn-complex (L.Zn) (Scheme 1, Formula 1A) to various important anions (like ATP, CTP, ADP, AMP, PPi, H2PO4^−, SO4^2−, CH3CO2^−, I^−, Br^−, Cl^− and F^−) the following experiment was conducted. A solution (˜21 mM) for of sodium salts of ATP, CTP, ADP, AMP, PPi, H2PO4^−, SO4^−, CH3CO2^−, I^−, Br^−, Cl^−, and F^− were prepared using respective salt in 10 mM HEPES buffer solutions (pH 7.2) and was stored for use. Further, a solution (44.35 μM) of the compound L.Zn (Scheme 1, Formula 1A) was prepared using doubly-distilled and deionized water and stored. These stored solutions were used on the day of preparation of the solution for experiment.
A test solution was used after 1 mL of a probe storage solution (the previously prepared and stored solution of 44.35 μM for the compound (L.Zn) (Scheme 1, Formula 1A of the present invention) was put in a 10 mL test tube, such that the final concentration of the probe storage solution was 8.87 μM. To this 4 mL of each of the previous prepared and stored solutions of ATP and other anions (CTP, ADP, AMP, PPi, H2PO4^−, SO4^2−, CH3CO2^−, I^−, Br^−, Cl^− and F^−) was added to the test tube such that the aliquot of each of the solutions was (17 mM). Then the resultant solution was used for UV-vis spectral measurement after appropriate base line correction using a double beam spectrophotometer (Shimadzu UV-3101 PC) and the results thereof are shown in FIG. 1.
Thus a red shift of 40 nm was observed on addition of the solution of ATP (˜1920 equiv.) to the solution of L.Zn (Scheme 1, Formula 1A). […]
as §2, with “2). […]” for “2).”
A 1.0 mL of stored solution of L.Zn (Scheme 1, Formula 1A) ([L.Zn]=47.3 μM) was put in a test-tube, such that, the final concentration of the L.Zn solution was 9.46 μM. To this varying amount of ATP (0.1-4 mL of the stored ATP solution (21.6 mM) was added. Resulting solution was then diluted by addition of a 10 mM HEPES buffer solution (pH 7.2) maintaining total volume of the resultant aliquot of 5 mL, which was used for spectrophotometric measurements using a double beam spectrophotometer and quartz spectrophotometric cell (3.5 mL capacity). The total spectral change was measured using a double beam spectrophotometer (Shimadzu UV-3101 PC) after appropriate base line correction. Slit width for all experiments during this titration was kept unchanged at 0.2 nm and the results thereof are shown in FIG. 3. […]

[4] = L.Zn 8.87 μM in aqueous medium, ~500 μM anion
[5] = spectrophotometric titration, pH 7.2, 10 mM HEPES, 25° C.

With `CN(C)c1ccc(N=Nc2ccc(S(=O)(=O)N3CCCNCCNCCCNCC3)cc2)cc1.O=[N+]([O-])[O-].O=[N+]([O-])[O-].[Zn+2]` [L.Zn] the “color change on addition of CTP (naked eye)” value [1, 4] was “Slight color change”, the “red shift of absorption on addition of CTP” value ([1]; pH 7.2, L.Zn 8.87 μM, anion 17 mM) was 9 nm and the “binding constant for the formation of the complex L.Zn-CTP” value [1, 5] was 220 (±+15) M^−1. For the same compound, the “color change on addition of ADP (naked eye)” value [2, 4] was “Slight color change”, the “binding constant for the formation of the complex L.Zn-ADP” value [2, 5] was 142 (±15) M^−1 and the “color change on addition of ATP (naked eye)” value [3, 4] was “significant color change”. For the same compound, the “shift of absorption maxima on binding to ATP” value ([3]; from 463 nm to 503 nm, pH 7.2, ~1920 equiv. ATP) was 40 nm, the “binding constant for the formation of the complex L.Zn-ATP” value [3] was 978 ± 15 M⁻¹ and 978 ± 4 M⁻¹ and the “binding constant for the formation of the complex L.Zn-ATP” value ([3]; listed as compound of formula 1A) was 978 ± 4 M⁻¹.
